One data set can be described thus: in vitro. To be noted: human, hela cells, % viability.
In the case of `C/C(CC(=O)Nc1ccc(C)cc1)=N\NC(=O)c1cccc(O)c1` [CBK262618], the viability at 28.5 h, 10 µM is 104%. Still for that read-out and setting: for `CN(C(=O)CN1CCCC1Cn1cccn1)C1(C#N)CCCCC1` (stereo not drawn) [CBK304571] the value was 88.6%; for `Cc1cccc(-c2csc3c(=O)[nH]c(N4CCC(C(=O)NCc5ccncc5)CC4)nc23)c1` [CBK215625], 106%; for `CCC(=O)N[C@H]1CC[C@@]2(Cc3ccc(OC)cc3)CCN(C)[C@H]2C1` [CBK024126], 98.9%. With `NS(=O)(=O)c1ccc(CNC(=O)c2cc(-c3cccnc3)nc3ccc(Cl)cc23)cc1` [CBK267727], the viability at 28.5 h, 10 µM worked out at 83.8%. The same measure, in the same setting: for `O=c1[nH]c2cc3nn[nH]c3cc2[nH]1` [CBK018154] the value was 99.9%; for `COCCCn1c(=O)[nH]c2ncc(-c3cccc(C(=O)NCCO)c3)nc21` [CBK065042], 118%.

For `O=C(c1cc(CO)ccn1)N(Cc1ccccn1)CC1CCCO1` (stereo not drawn) [CBK306820], the viability at 28.5 h, 10 µM was determined as 97%.

For `COc1ccc(OC)c(NC(=O)CSc2nnc(-c3ccc(N)cc3)n2C)c1` [CBK265872], the viability at 28.5 h, 10 µM came to 106%. On the same count and under the same terms, for `CCN(Cc1ccccc1)C(=O)NCCCSC` [CBK155214] the value was 94.3%; for `COc1ccc(CN2CCC(c3ncc(C(=O)Nc4ccc(F)cc4)c(C)n3)CC2)cc1` [CBK285629], 101%. Regarding `O=C(c1cc[nH]n1)N1CCCCC1c1ncc(-c2cccc(F)c2)[nH]1` (stereo not drawn) [CBK291217], the viability at 28.5 h, 10 µM was determined as 94.6%.

Consider `CS(=O)(=O)Nc1cccc(C(=O)O)c1` [CBK160404], for which the viability at 28.5 h, 10 µM was 96.3%.

As to `O=C(c1cncnc1)N1CCC(Cn2cncn2)(C2CCCCC2)CC1` [CBK136823], the viability at 28.5 h, 10 µM worked out at 92.7%. Turning to `CC(NC(=O)Cn1c(-c2nonc2N)nc2ccccc21)c1ccccc1` (stereo not drawn) [CBK266006], the viability at 28.5 h, 10 µM stood at 106%. `Cc1nc(C2(O)CCCN(C3CCCCC3)CC2)sc1COc1ccc(F)c(F)c1` (stereo not drawn) [CBK286499]: the viability at 28.5 h, 10 µM stood at 86.4%. Take `COc1cccc(CN2CCC3(C2)c2[nH]c4c(C)cccc4c2CCN3C(C)=O)c1` (stereo not drawn) [CBK039662]: the viability at 28.5 h, 10 µM was determined as 84.9%. The same measure, in the same setting: for `O=C1C2C(c3ccc(F)cc3)NC(c3ccc(F)cc3)C1C(c1ccc(F)cc1)NC2c1ccc(F)cc1` (stereo not drawn) [CBK261288] the value was 110%; for `Cn1c(SCC(=O)N2CCN(c3cccc(Cl)c3)CC2)nnc1-c1cccc([N+](=O)[O-])c1` [CBK266264], 97.8%.

With `Nc1nonc1-n1nnc(C(=O)O)c1-c1cccs1` [CBK266674], the viability at 28.5 h, 10 µM is 99.4%. In the case of `Cc1nnnn1-c1ccc(CC(=O)N2CCc3sccc3C2c2ccccc2)cc1` (stereo not drawn) [CBK285567], the viability at 28.5 h, 10 µM turned out to be 103%. Consider `Nc1nn(S(=O)(=O)c2cccc3nsnc23)cc1-c1ccc(Br)cc1` [CBK268975], for which the viability at 28.5 h, 10 µM turned out to be 107%. In the case of `O=C(O)CCCCCNc1ccc(C(F)(F)F)cc1[N+](=O)[O-]` [CBK286707], the viability at 28.5 h, 10 µM is 83.3%. Regarding `COC(=O)CN1C(=O)N2CCCN=C2c2ccc(Cl)cc21` [CBK284402], the viability at 28.5 h, 10 µM amounted to 89.8%. On to `NS(=O)(=O)c1ccc(NC2=NC(=O)C(CC(=O)Nc3ccccc3)S2)cc1` (stereo not drawn) [CBK266417], for which the viability at 28.5 h, 10 µM amounted to 98.2%.

For `O=C(Nc1ccc(N2CCNCC2)nc1)c1cccnc1` [CBK029439T], the viability at 28.5 h, 10 µM was 95.1%. Regarding `COc1ccc(C(NC(=O)C2CCN(C(=O)NC(C)(C)C)CC2)c2ccccn2)cc1` (stereo not drawn) [CBK060298], the viability at 28.5 h, 10 µM was 112%. Same read-out and setting: then `CCCNC(C)C(=O)Nc1c(C)csc1C(=O)O` (stereo not drawn) [CBK287064], with 113%. Regarding `CCc1cc(C(=O)NC(c2ccc(F)cc2)c2nccn2C)n(C)n1` (stereo not drawn) [CBK281434], the viability at 28.5 h, 10 µM was determined as 108%.

`N=c1n(CCCOc2ccccc2Cl)c2ccccc2n1CC(N)=O` [CBK268927C]: the viability at 28.5 h, 10 µM worked out at 106%. Same read-out and setting: then `O=C1NCC2(CCN(C(=O)C3CC3)CC2)Oc2ccccc21` [CBK282918], with 101%.

As to `CC(=O)c1cccc(NC(=O)N(CCO)C2CCCc3ccccc32)c1` (stereo not drawn) [CBK305195], the viability at 28.5 h, 10 µM amounted to 83%.

`CC(C)c1cc(C(=O)N(CCO)CC2CC3C=CC2C3)n(C)n1` (stereo not drawn) [CBK282164]: the viability at 28.5 h, 10 µM came out at 84.6%.

Take `O=C(CO)N1CC2(CCN(CCn3cccc3)CC2)c2ccccc21` [CBK143953]: the viability at 28.5 h, 10 µM was found to be 86.9%.

Regarding `CCCN1CCCC(c2ccccc2O)C1` (stereo not drawn) [CBK024365G], the viability at 28.5 h, 10 µM was found to be 95.3%. Turning to `Clc1ccc(C2NCCS2)c(Cl)c1` (stereo not drawn) [CBK027425], the viability at 28.5 h, 10 µM amounted to 102%. The same measure, in the same setting: for `COc1ccc(NC(=O)CC2SC(=N)NC2=O)c([N+](=O)[O-])c1` (stereo not drawn) [CBK265334] the value was 95.9%; for `CC(=O)OC(C(=O)O)C(OC(C)=O)c1nc2ccccc2s1` (stereo not drawn) [CBK264076], 99.3%; for `CN(C)c1ccc(NC(=O)CC2S/C(=N/c3ccccc3)N(c3ccccc3)C2=O)cc1` (stereo not drawn) [CBK265644], 92.7%. Take `CC1CCN(c2nc3nonc3nc2Nc2ccc3c(c2)OCO3)CC1` [CBK077551]: the viability at 28.5 h, 10 µM came to 98.8%. On to `O=C(COc1ccc2ccccc2c1)OCC(=O)c1ccc([N+](=O)[O-])cc1` [CBK261586], for which the viability at 28.5 h, 10 µM is 88.2%. With `CC(C)C[C@@H]1N[C@H](C(=O)N2CCN(c3ncccn3)CC2)Cc2cn(C)c3cccc1c23` [CBK289421], the viability at 28.5 h, 10 µM worked out at 84.2%. `O=[N+]([O-])c1ccc(/C=N/C23CN4CN(CN(C4)C2)C3)s1` [CBK261752]: the viability at 28.5 h, 10 µM worked out at 105%. Turning to `O=C(Nc1cccc(O)c1)c1ccc2c(c1)C(=O)N(Cc1ccco1)C2=O` [CBK268640], the viability at 28.5 h, 10 µM stood at 95.6%. Regarding `O=C(Nc1ccc(I)cc1C(=O)NCCN1CCOCC1)c1ccccc1Cl` [CBK266245], the viability at 28.5 h, 10 µM was 101%. Still for that read-out and setting: for `COc1ccc(CC(=O)Nc2nc(OC)cnc2-c2ccoc2)cc1` [CBK145435] the value was 92.8%; for `Cc1ccc(-c2nc3ccccc3[nH]2)cc1` [CBK085933], 89.9%. On the same count and under the same terms, for `COc1c(C)cccc1C(=O)N1CCCC(c2ccc(Nc3nc(C)cc(C)n3)cn2)C1` (stereo not drawn) [CBK285989] the value was 98.5%; for `O=C1CSC2(C(=O)N(Cc3cccc(C(F)(F)F)c3)c3ccccc32)N1c1ccccc1` (stereo not drawn) [CBK092392], 108%. On the same count and under the same terms, for `CN1CCN(c2nc(NS(=O)(=O)c3cccc(C(F)(F)F)c3)cc3ccccc23)CC1` [CBK200013C] the value was 98.6%; for `O=C(CN(c1cccc(Cl)c1)S(=O)(=O)c1ccccc1)NN=C1CCCCCC1` [CBK262519], 89.9%. For `CN(CCCn1c(=S)[nH]c2ccccc2c1=O)C1CCCCC1` [CBK296642], the viability at 28.5 h, 10 µM turned out to be 103%. Take `Cc1ccc(NC(=O)CN2C(=O)S/C(=C\c3cc(C)n(-c4cccc(C(=O)O)c4)c3C)C2=O)cc1` [CBK264725]: the viability at 28.5 h, 10 µM came out at 89.9%.

As for `O=C(Nc1ccncc1)OCCNC(=O)c1ccncc1` [CBK262150], the viability at 28.5 h, 10 µM came to 102%. Still for that read-out and setting: then `CC(Oc1cccc(Br)c1)C(=O)NCCC(=O)O` (stereo not drawn) [CBK268024], with 90.9%; and `O=c1[nH]nc2c(S(=O)(=O)N3CCCC3)cccn12` [CBK288460], with 85.9%. On the same count and under the same terms, then `COc1ccc(CCNC(=O)c2cnc3sc(C)cn3c2=O)cc1OC` [CBK287709], with 104%; and `CCCc1cc(C(=O)OC)c(NC(=O)c2c(C)noc2C)s1` [CBK058088], with 92.5%; and `C(=N\Nc1nc2ccccc2[nH]1)/c1cccnc1` [CBK026357], with 115%. Take `O=C(Cc1ccccc1)N1CCCC1c1n[nH]cc1-c1ccncc1` (stereo not drawn) [CBK283435]: the viability at 28.5 h, 10 µM is 85.7%. For the compound `Cc1nc(-c2nnc(NC(=O)COc3ccc(Cl)cc3Cl)o2)cs1` [CBK287843], the viability at 28.5 h, 10 µM was 109%.

Consider `C[C@@H]1CN(C(=O)c2cc3c(C(=O)OC(C)(C)C)ncn3c3ccc(Cl)cc23)C[C@H](C)N1` [CBK016744], for which the viability at 28.5 h, 10 µM was 115%. On to `O=C(CN1C(=O)c2ccccc2C1=O)Nc1cccc2cccnc12` [CBK261320], for which the viability at 28.5 h, 10 µM was determined as 91.2%. Still for that read-out and setting: then `C[S+]([O-])CCC(NS(=O)(=O)c1ccccc1)C(=O)O` (stereo not drawn) [CBK268267], with 93.2%; and `CN(C)C(=O)c1ccc(-c2ncc(OCc3cccs3)nc2N)cc1` [CBK145187], with 102%. For `CN(CC(=O)Nc1cnc(-c2ccc(F)cc2)c(-c2ccco2)n1)S(=O)(=O)c1ccccc1` [CBK037214], the viability at 28.5 h, 10 µM was found to be 100%. Regarding `Cc1cc(C)[n+](-c2nccs2)c(C)c1` [CBK008782G], the viability at 28.5 h, 10 µM turned out to be 103%.

As for `NS(=O)(=O)c1ccc(/N=C/c2ccc(OCc3ccccc3)cc2)cc1` [CBK261585], the viability at 28.5 h, 10 µM amounted to 98.3%. In the case of `O=S(=O)(NCc1cccc(Cl)c1)c1csc2ccnc(N3CCNCC3)c12` [CBK045595C], the viability at 28.5 h, 10 µM was determined as 88.6%.

On to `CN1CCc2nc(SCc3cccnc3)c(C#N)cc2C1` [CBK267463], for which the viability at 28.5 h, 10 µM amounted to 87.4%. Same read-out and setting: then `Cc1nn(Cc2ccccc2)c(C)c1CNC(=O)c1nc(Cl)ccc1Cl` [CBK297928], with 93.8%. For `O=C(Nc1ccccc1)c1ccc(F)cc1-n1cnnn1` [CBK287903], the viability at 28.5 h, 10 µM came out at 111%. Take `CC(=O)N1CCCc2cc(C(O)CN3CCN(c4cccc(C)c4)CC3)ccc21` (stereo not drawn) [CBK286457]: the viability at 28.5 h, 10 µM amounted to 93.1%. Still for that read-out and setting: then `CN(C)CCOC(=O)C1CCCCCN1C` (stereo not drawn) [CBK278175G], with 97.8%; and `Cc1ccc([N+](=O)[O-])cc1NC(=O)CSc1nnc(-c2ccco2)o1` [CBK268378], with 117%; and `O=C(Cn1cc(C(=O)NC2(c3ccccc3)CCCC2)ccc1=O)NCc1ccc(F)cc1` [CBK286027], with 84.4%.

Still in this data set, the particulars now being: human, hela cells, % viability, bulk resorufin, single well.
On to `Cc1ccc(Cn2nc(C(=O)Nc3ccccn3)c3ccccc32)cc1` [CBK047839], for which the viability at 28.5 h, 10 µM was determined as 105%. Regarding `CC(C)(N)C(=O)N1CCC2(CC1)OCc1cc(-c3ccc(S(C)(=O)=O)nc3)ccc1O2` [CBK160868], the viability at 28.5 h, 10 µM worked out at 93.3%.

For the origin of these results see PMC12040169 (PLOS Biology, 2025).
